{
  "source": "patent US8742115B2",
  "about": "“Co-crystals and salts of CCR3-inhibitors” (Boehringer Ingelheim International GmbH, priority 2010, dated 2014)",
  "note": "pKi: −log10 of the molar value.",
  "data": [
    {"molecular_target": "human chemokine receptor CCR3 (Homo sapiens (Human), UniProt P51677)", "sequence (P51677 whole entry)": "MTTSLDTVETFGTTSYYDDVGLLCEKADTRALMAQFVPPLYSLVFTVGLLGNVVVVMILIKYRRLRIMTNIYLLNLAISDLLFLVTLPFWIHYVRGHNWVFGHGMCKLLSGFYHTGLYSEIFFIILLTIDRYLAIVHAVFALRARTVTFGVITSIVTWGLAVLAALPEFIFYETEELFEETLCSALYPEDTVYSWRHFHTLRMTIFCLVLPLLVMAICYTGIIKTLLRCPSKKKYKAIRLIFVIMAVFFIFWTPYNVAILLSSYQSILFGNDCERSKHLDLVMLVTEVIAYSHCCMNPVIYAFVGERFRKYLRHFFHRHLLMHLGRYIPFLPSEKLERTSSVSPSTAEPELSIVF", "experiment": "CCR3 receptor binding assay (SPA, 125I-eotaxin-1)", "conditions": "human Eotaxin-1 at human CCR3-Rezeptor; membranes of hCCR3-C1 (transfected K562) cells", "method": "The CCR3 receptor binding test is based on a K562 cell line (leukemia myelogenic blast cells) transfected with the human chemokine receptor CCR3 (hCCR3-C1 cells). The cell membranes were prepared by disrupting the hCCR3-C1 cells by […]. The preparation was centrifuged at 400 g 4° C. for 30 min. The supernatant was transferred into fresh tubes followed by a second centrifugation at 48000 g, 4° C. for 1 h. The membranes were re-suspended in the SPA incubation buffer (25 mM HEPES, 25 mM MgCl2 6×H2O, 1 mM CaCl2 2×H2O) without bovine serum albumin and homogenized by passing through a single use needle (Terumo, 23Gx1″). The membranes were stored in aliquots at −80° C.\nThe CCR3 receptor binding assay was performed in a Scintillation Proximity Assay (SPA) design with the radioligand recombinant human ^125Iodine-eotaxin-1. Cell membranes of hCCR3 C1 cells were again homogenized by passing through a single use needle (Terumo, 23Gx1″) and diluted in SPA incubation buffer in suitable concentrations (0.5-10 μg protein/well) in 96 well microtiter plates (1450-514, Perkin Elmer). The SPA assay was set up in the SPA incubation buffer with a final volume of 200 μl and final concentration of 25 mM HEPES, 25 mM MgCl2 6×H2O, 1 mM CaCl2 2×H2O and 0.1% bovine serum albumin. The SPA assay mixture contained 60 μl of the membrane suspension, 80 μl of Wheat Germ Agglutinin coated PVT beads (organic scintillator, GE Healthcare, RPNQ-0001) 0.2 mg/well), 40 μl of recombinant human ^125Jodine-eotaxin-1 (Biotrend), diluted in SPA buffer to a final concentration of 30.000 dpm per well, and 20 μl of the test compound (dissolved in DMSO dilutions). The SPA assay mixture was incubated for 2 h at room temperature. Bound radioactivity was determined with a scintillation counter (Micro Beta “Trilux”, Wallac). Included were controls for total binding (no displacer added, Bo) and non-specific binding (NSB) by adding unlabelled recombinant human Eotaxin-1 (Biotrend, Cat #300-21) or a reference compound.\nDetermination of the affinity of a test compound was calculated by subtraction of the non-specific binding (NSB) from the total binding (Bo) or the binding in the presence of the test compound (B) at a given compound concentration. The NSB value was set to 100% inhibition. The Bo-NSB value was set to 0% inhibition.", "values": [
      {"smiles": "CNC(=O)c1ccnc(NC(=O)[C@H]2CCC(=O)N2C2CCN(Cc3ccc(Cl)c(C)c3)CC2)c1", "note": "[Example 1]", "pKi": 7.63},
      {"smiles": "Cc1cccc(NC(=O)[C@H]2CCC(=O)N2C2CCN(Cc3ccc(Cl)c(C)c3)CC2)n1", "note": "[Example 2]", "pKi": 7.16},
      {"smiles": "COc1ccnc(NC(=O)[C@H]2CCC(=O)N2C2CCN(Cc3ccc(Cl)c(C)c3)CC2)c1", "note": "[Example 3]", "pKi": 7.33},
      {"smiles": "Cc1ccnc(NC(=O)[C@H]2CCC(=O)N2C2CCN(Cc3ccc(Cl)c(C)c3)CC2)c1", "note": "[Example 4]", "pKi": 7.17},
      {"smiles": "CCc1ccnc(NC(=O)[C@H]2CCC(=O)N2C2CCN(Cc3ccc(Cl)c(C)c3)CC2)c1", "note": "[Example 5]", "pKi": 6.71},
      {"smiles": "CNC(=O)c1cccc(NC(=O)[C@H]2CCC(=O)N2C2CCN(Cc3ccc(Cl)c(C)c3)CC2)n1", "note": "[Example 6]", "pKi": 7.14},
      {"smiles": "CNC(=O)c1cc(C)nc(NC(=O)[C@H]2CCC(=O)N2C2CCN(Cc3ccc(Cl)c(C)c3)CC2)c1", "note": "[Example 7]", "pKi": 7.98},
      {"smiles": "Cc1cc(CN2CCC(N3C(=O)CC[C@@H]3C(=O)Nc3cc(C(=O)N(C)C)ccn3)CC2)ccc1Cl", "note": "[Example 8]", "pKi": 8.07},
      {"smiles": "Cc1cc(C(=O)N2CCCC2)cc(NC(=O)[C@H]2CCC(=O)N2C2CCN(Cc3ccc(Cl)c(C)c3)CC2)n1", "note": "[Example 9]", "pKi": 9.05},
      {"smiles": "Cc1cc(C(=O)N(C)C)cc(NC(=O)[C@H]2CCC(=O)N2C2CCN(Cc3ccc(Cl)c(C)c3)CC2)n1", "note": "[Example 11]", "pKi": 8.49},
      {"smiles": "Cc1cc(CN2CCC(N3C(=O)CC[C@@H]3C(=O)Nc3cc(C(=O)N4CCCC4)ccn3)CC2)ccc1Cl", "note": "[Example 12]", "pKi": 8.33},
      {"smiles": "Cc1cc(CN2CCC(N3C(=O)CC[C@@H]3C(=O)Nc3cc(C(=O)N4CCOCC4)ccn3)CC2)ccc1Cl", "note": "[Example 13]", "pKi": 7.72},
      {"smiles": "Cc1cc(CN2CCC(N3C(=O)CC[C@@H]3C(=O)N(C)c3ccccn3)CC2)ccc1Cl", "note": "[Example 14]", "pKi": 5.85},
      {"smiles": "Cc1cc(C(=O)NCC2CC2)cc(NC(=O)[C@H]2CCC(=O)N2C2CCN(Cc3ccc(Cl)c(C)c3)CC2)n1", "note": "[Example 15]", "pKi": 8.46},
      {"smiles": "Cc1cc(C(=O)N2CCC2)cc(NC(=O)[C@H]2CCC(=O)N2C2CCN(Cc3ccc(Cl)c(C)c3)CC2)n1", "note": "[Example 16]", "pKi": 8.17},
      {"smiles": "Cc1cc(C(=O)NCC(C)C)cc(NC(=O)[C@H]2CCC(=O)N2C2CCN(Cc3ccc(Cl)c(C)c3)CC2)n1", "note": "[Example 17]", "pKi": 8.37},
      {"smiles": "Cc1cc(C(=O)NCC(F)F)cc(NC(=O)[C@H]2CCC(=O)N2C2CCN(Cc3ccc(Cl)c(C)c3)CC2)n1", "note": "[Example 18]", "pKi": 8.34},
      {"smiles": "CCC(C)NC(=O)c1cc(C)nc(NC(=O)[C@H]2CCC(=O)N2C2CCN(Cc3ccc(Cl)c(C)c3)CC2)c1", "note": "(stereo partly shown) [Example 19]", "pKi": 8.40},
      {"smiles": "CCC(C)N(C)C(=O)c1cc(C)nc(NC(=O)[C@H]2CCC(=O)N2C2CCN(Cc3ccc(Cl)c(C)c3)CC2)c1", "note": "(stereo partly shown) [Example 21]", "pKi": 8.28},
      {"smiles": "Cc1cc(C(=O)N(C)C(C)C)cc(NC(=O)[C@H]2CCC(=O)N2C2CCN(Cc3ccc(Cl)c(C)c3)CC2)n1", "note": "[Example 22]", "pKi": 8.64},
      {"smiles": "Cc1cc(C(=O)NC2CCC2)cc(NC(=O)[C@H]2CCC(=O)N2C2CCN(Cc3ccc(Cl)c(C)c3)CC2)n1", "note": "[Example 23]", "pKi": 8.38},
      {"smiles": "Cc1cc(C(=O)N(C)C)cc(NC(=O)[C@H]2CCC(=O)N2C2CCN(Cc3ccc(Br)c(C)c3)CC2)n1", "note": "[Example 24]", "pKi": 8.24},
      {"smiles": "CCc1cc(C(=O)N(C)C)cc(NC(=O)[C@H]2CCC(=O)N2C2CCN(Cc3ccc(Cl)c(C)c3)CC2)n1", "note": "[Example 25]", "pKi": 8.08},
      {"smiles": "COc1cc(C(=O)N(C)C)cc(NC(=O)[C@H]2CCC(=O)N2C2CCN(Cc3ccc(Cl)c(C)c3)CC2)n1", "note": "[Example 26]", "pKi": 6.64},
      {"smiles": "CCCCc1cc(C(=O)N(C)C)cc(NC(=O)[C@H]2CCC(=O)N2C2CCN(Cc3ccc(Cl)c(C)c3)CC2)n1", "note": "[Example 27]", "pKi": 6.38},
      {"smiles": "Cc1cc(C(=O)N(C)C)cc(NC(=O)[C@H]2CCC(=O)N2C2CCN(Cc3ccc(Cl)c(Cl)c3)CC2)n1", "note": "[Example 28]", "pKi": 7.75},
      {"smiles": "Cc1cc(CN2CCC(N3C(=O)CC[C@@H]3C(=O)Nc3cc(C(=O)N(C)C)cc(C(C)C)n3)CC2)ccc1Cl", "note": "[Example 29]", "pKi": 8.39},
      {"smiles": "Cc1cc(C(=O)N(C)C)cc(NC(=O)[C@H]2CCC(=O)N2C2CCN(Cc3ccc(F)c(C)c3)CC2)n1", "note": "[Example 30]", "pKi": 7.15},
      {"smiles": "Cc1cc(C(=O)N(C)C)cc(NC(=O)[C@H]2CCC(=O)N2C2CCN(Cc3ccc(Cl)c(C(F)(F)F)c3)CC2)n1", "note": "[Example 31]", "pKi": 7.06},
      {"smiles": "Cc1cc(CN2CCC(N3C(=O)CC[C@@H]3C(=O)Nc3cc(C(=O)N(C)C)cc(C4CC4)n3)CC2)ccc1Cl", "note": "[Example 32]", "pKi": 8.64},
      {"smiles": "CCc1cc(CN2CCC(N3C(=O)CC[C@@H]3C(=O)Nc3cc(C(=O)N(C)C)cc(C)n3)CC2)ccc1Cl", "note": "[Example 33]", "pKi": 8.10},
      {"smiles": "C#Cc1cc(C(=O)N(C)C)cc(NC(=O)[C@H]2CCC(=O)N2C2CCN(Cc3ccc(Cl)c(C)c3)CC2)n1", "note": "[Example 34]", "pKi": 8.10},
      {"smiles": "Cc1cc(C(=O)N(C)C)cc(NC(=O)[C@H]2CCC(=O)N2C2CCN(Cc3cc(C)c(Cl)c(C)c3)CC2)n1", "note": "[Example 35]", "pKi": 7.21},
      {"smiles": "CCN(C)C(=O)c1cc(C)nc(NC(=O)[C@H]2CCC(=O)N2C2CCN(Cc3ccc(Cl)c(C)c3)CC2)c1", "note": "[Example 36]", "pKi": 8.77}
    ]}
  ]
}
